Measurements taken from PubChem BioAssay AID182 (DTP/NCI, 2004).
Values joined by “and” are separate entries in the source; they are usually repeats but may differ in a detail not shown here. Equal entries are not always repeated. Inconclusive results and toxic doses are left out. Starred links: 1 amine or outer side, 2 acyl side, 3 side chain; linkers in the order of their positions; H or OH if unused. Positions of bridges follow the written chain, without caps; N, C: chain ends. Non-standard residues stand in square brackets, D forms with d. Residues, ends and D or L forms follow the SMILES beside them. Chains are numbered I, II in the order given. Actinocin(9to1) = Cc1c2oc3c(C)ccc(C(=O)[*:1])c3nc-2c(C(=O)[*:2])c(N)c1=O; NMeV = CN[CH](C(=O)O)C(C)C; Aze = O=C(O)[CH]1CCN1; Sar = CNCC(=O)O

Tested on: BDF1 mice, P388/ADR leukemia ip, median survival T/C
Assay: NCI In Vivo Anticancer Drug Screen. Data for tumor model P388 Leukemia resistant to Adriamycin; NSC 123127, Developed at Scr 06 and 41 (intraperitoneal) in B6D2F1 (BDF1) mice
Conditions: endpoint: median survival time, higher = longer survival
Description: The antitumor activity of compounds was measured in mice bearing transplantable tumors. Survival or tumor size were measured and the results are expressed as the measurement made in the treated group (T) divided by the measurement made in the vehicle treated control group (C). The tumor model used in this assay is P388 Leukemia resistant to Adriamycin; NSC 123127, Developed at Scr 06 and 41 (intraperitoneal) in B6D2F1 (BDF1) mice

SMILES: COc1cc([C@@H]2c3cc4c(cc3[C@@H](OC3OC5COC(C)OC5C(O)C3O)[C@H]3COC(=O)[C@H]23)OCO4)cc(OC)c1O (some centres not stated)
- T/C (dose: 18.0 mg/kg/injection, schedule: Q04DX003 (ip), vehicle: Klucel (hydroxypropylcellulose) (HPC)): 110 % of control
- T/C (dose: 30.0 mg/kg/injection, schedule: Q04DX003 (ip), vehicle: Klucel (hydroxypropylcellulose) (HPC)): 119 % of control
- T/C (dose: 50.0 mg/kg/injection, schedule: Q04DX003 (ip), vehicle: Klucel (hydroxypropylcellulose) (HPC)): 112 % of control

SMILES: CCCCC(=O)OCC(=O)[C@]1(O)Cc2c(O)c3c(c(O)c2[C@@H](OC2CC(NC(=O)C(F)(F)F)C(O)C(C)O2)C1)C(=O)c1c(OC)cccc1C3=O (some centres not stated)
- T/C (dose: 13.0 mg/kg/injection, schedule: Q01DX004 (ip), vehicle: saline with Tween-80): 105 % of control
- T/C (dose: 15.1 mg/kg/injection, schedule: Q04DX003 (ip), vehicle: other): 120 % of control
- T/C (dose: 21.0 mg/kg/injection, schedule: Q01DX004 (ip), vehicle: saline with Tween-80): 113 % of control
- T/C (dose: 25.2 mg/kg/injection, schedule: Q04DX003 (ip), vehicle: other): 119 % of control
- T/C (dose: 42.0 mg/kg/injection, schedule: Q04DX003 (ip), vehicle: other): 122 % of control
- T/C (dose: 70.0 mg/kg/injection, schedule: Q04DX003 (ip), vehicle: other): 155 % of control

SMILES: COC1=C(N)C(=O)c2nc(-c3nc(C(=O)O)c(C)c(-c4ccc(OC)c(OC)c4O)c3N)ccc2C1=O
- T/C (dose: 144.0 micrograms/kg/injection, schedule: Q04DX003 (ip), vehicle: alkali diluted with saline): 120 % of control
- T/C (dose: 240.0 micrograms/kg/injection, schedule: Q04DX003 (ip), vehicle: alkali diluted with saline): 120 % of control
- T/C (dose: 400.0 micrograms/kg/injection, schedule: Q04DX003 (ip), vehicle: alkali diluted with saline): 122 % of control
- T/C (dose: 667.0 micrograms/kg/injection, schedule: Q04DX003 (ip), vehicle: alkali diluted with saline): 121 % of control

SMILES: CO[C@H]1C[C@](C)(O)Cc2cc3c(c(O)c21)C(=O)c1c(O)cc2c(c1C3=O)O[C@@H]1O[C@@]2(C)[C@H](O)[C@@H](N(C)C)[C@@H]1O
- T/C (dose: 18.0 mg/kg/injection, schedule: Q04DX003 (ip), vehicle: lactate): 112 % of control
- T/C (dose: 30.0 mg/kg/injection, schedule: Q04DX003 (ip), vehicle: lactate): 116 % of control
- T/C (dose: 50.0 mg/kg/injection, schedule: Q04DX003 (ip), vehicle: lactate): 94 % of control

SMILES: O=C(Nc1ccc(C2=NCCCN2)cc1)c1ccc(C(=O)Nc2ccc(C3=NCCCN3)cc2)cc1
- T/C (dose: 10.8 mg/kg/injection, schedule: Q04DX003 (ip), vehicle: other): 118 % of control
- T/C (dose: 30.0 mg/kg/injection, schedule: Q04DX003 (ip), vehicle: other): 94 % of control

SMILES: NC(CSC(c1ccccc1)(c1ccccc1)c1ccccc1)C(=O)O (configuration not stated)
- T/C (dose: 24.0 mg/kg/injection, schedule: Q01DX009 (ip), vehicle: other): 100 % of control
- T/C (dose: 40.0 mg/kg/injection, schedule: Q01DX009 (ip), vehicle: other): 106 % of control

SMILES: CC[C@]1(O)C[C@H]2CN(CCc3c([nH]c4ccccc34)[C@@](C(=O)OC)(c3cc4c(cc3OC)N(C=O)[C@H]3[C@@](O)(C(=O)OC)[C@H](OC(C)=O)[C@]5(CC)C=CCN6CC[C@]43[C@@H]65)C2)C1
- T/C (dose: 0.5 mg/kg/injection, schedule: Q04DX003 (ip), vehicle: saline): 92 % of control
- T/C (dose: 0.65 mg/kg/injection, schedule: Q04DX003 (ip), vehicle: saline): 111 % of control
- T/C (dose: 1.0 mg/kg/injection, schedule: Q04DX003 (ip), vehicle: saline): 92 % of control
- T/C (dose: 1.8 mg/kg/injection, schedule: Q04DX003 (ip), vehicle: saline): 95 % of control
- T/C (dose: 3.0 mg/kg/injection, schedule: Q04DX003 (ip), vehicle: saline): 87 % of control
- T/C (dose: 389.0 micrograms/kg/injection, schedule: Q04DX003 (ip), vehicle: saline): 109 % of control
- T/C (dose: 432.0 micrograms/kg/injection, schedule: Q04DX003 (ip), vehicle: saline): 113 % of control
- T/C (dose: 648.0 micrograms/kg/injection, schedule: Q04DX003 (ip), vehicle: saline): 112 % of control
- T/C (dose: 720.0 micrograms/kg/injection, schedule: Q04DX003 (ip), vehicle: saline): 107 % of control
- T/C (dose: 1080.0 micrograms/kg/injection, schedule: Q04DX003 (ip), vehicle: saline): 110 % of control
- T/C (dose: 1200.0 micrograms/kg/injection, schedule: Q04DX003 (ip), vehicle: saline): 101 % of control
- T/C (dose: 1800.0 micrograms/kg/injection, schedule: Q04DX003 (ip), vehicle: saline): 107 % of control

SMILES: COc1cc([C@@H]2c3cc4c(cc3[C@@H](OC3OC5CO[C@@H](c6cccs6)OC5C(O)C3O)[C@H]3COC(=O)[C@H]23)OCO4)cc(OC)c1O (some centres not stated)
- T/C (dose: 13.33 mg/kg/injection, schedule: Q04DX003 (ip), vehicle: saline): 123 % of control

SMILES: Cc1c2ccncc2c(C)c2c1[nH]c1ccccc12
- T/C (dose: 13.0 mg/kg/injection, schedule: Q04DX003 (ip), vehicle: water): 112 % of control
- T/C (dose: 21.6 mg/kg/injection, schedule: Q04DX003 (ip), vehicle: water): 104 % of control and 109 % of control
- T/C (dose: 36.0 mg/kg/injection, schedule: Q04DX003 (ip), vehicle: water): 110 % of control and 117 % of control

SMILES: COC(=O)C[C@](O)(CCCC(C)(C)O)C(=O)O[C@@H]1C(OC)=C[C@]23CCCN2CCc2cc4c(cc2[C@H]13)OCO4
- T/C (dose: 0.72 mg/kg/injection, schedule: Q04DX003 (ip), vehicle: acid diluted with saline): 100 % of control
- T/C (dose: 1.2 mg/kg/injection, schedule: Q04DX003 (ip), vehicle: acid diluted with saline): 103 % of control
- T/C (dose: 2.0 mg/kg/injection, schedule: Q04DX003 (ip), vehicle: acid diluted with saline): 110 % of control

SMILES: Cc1c2oc3c(C)ccc(C(=O)NC4C(=O)NC(C(C)C)C(=O)N5CCC5C(=O)N(C)CC(=O)N(C)C(C(C)C)C(=O)OC4C)c3nc-2c(C(=O)NC2C(=O)NC(C(C)C)C(=O)N3CCC3C(=O)N(C)CC(=O)N(C)C(C(C)C)C(=O)OC2C)c(N)c1=O (configuration not stated) (I: TV[Aze][Sar][NMeV] / II: TV[Aze][Sar][NMeV]; ester I:1-I:C, II:1-II:C; linker I:N-II:N via Actinocin(9to1); configuration not given here)
- T/C (dose: 216.0 micrograms/kg/injection, schedule: Q01DX003 (ip), vehicle: saline + alcohol): 110 % of control
- T/C (dose: 360.0 micrograms/kg/injection, schedule: Q01DX003 (ip), vehicle: saline + alcohol): 103 % of control
- T/C (dose: 600.0 micrograms/kg/injection, schedule: Q01DX003 (ip), vehicle: saline + alcohol): 104 % of control
- T/C (dose: 1000.0 micrograms/kg/injection, schedule: Q01DX003 (ip), vehicle: saline + alcohol): 86 % of control

SMILES: N[C@@H](Cc1ccc(N(CCCl)CCCl)cc1)C(=O)O
- T/C (dose: 3.6 mg/kg/injection, schedule: Q01DX001 (ip), vehicle: saline): 313 % of control
- T/C (dose: 6.0 mg/kg/injection, schedule: Q01DX001 (ip), vehicle: saline): 507 % of control
- T/C (dose: 10.0 mg/kg/injection, schedule: Q01DX001 (ip), vehicle: saline): 507 % of control
- T/C (dose: 16.7 mg/kg/injection, schedule: Q01DX001 (ip), vehicle: saline): 406 % of control

SMILES: COC(=O)[C@@H]1c2cc3c(c(O)c2[C@@H](OC2OC(C)C(OC)C(C)(OC)C2OC)C[C@]1(C)O)C(=O)c1c(O)cc2c(c1C3=O)O[C@H]1O[C@]2(C)[C@H](O)[C@@H](N(C)C)[C@@H]1O (some centres not stated)
- T/C (dose: 0.65 mg/kg/injection, schedule: Q04DX003 (ip), vehicle: water): 89 % of control
- T/C (dose: 1.08 mg/kg/injection, schedule: Q04DX003 (ip), vehicle: water): 96 % of control
- T/C (dose: 1.3 mg/kg/injection, schedule: Q04DX003 (ip), vehicle: water): 103 % of control
- T/C (dose: 1.8 mg/kg/injection, schedule: Q04DX003 (ip), vehicle: water): 96 % of control
- T/C (dose: 2.16 mg/kg/injection, schedule: Q04DX003 (ip), vehicle: water): 91 % of control
